Results: patent US20100184026A1, “Companion Diagnostic Assays For Endothelin Receptor Antagonists” (ABBOTT LABORATORIES, priority 2009, published 2010)

Key:
[1] = test system: Mouse preosteoblastic MC3T3 cells; experiment: Microarray analysis of gene expression in ET-treated mouse osteoblasts; format: cell-based; settings: for # Genes Blocked by ABT-627, percent of genes induced by ET: drug added 1 hour prior to ET; for Induced by ET (number of genes): genes regulated ≧1.5-fold, p ≦0.01
Description: (§1) Mouse MC3T3 pre-osteoblastic cells (subclone 4) were purchased from ATCC (Manassis, Va.) and propagated in αMEM media without ascorbic acid (Invitrogen, Carlsbad, Calif.) supplemented with 10% FBS (Invitrogen). Human Mesenchymal Stem Cells (MSCs) were purchased from Cambrex (Walkersville, Md.) and propagated according in MSCGM™ media (Cambrex). To initiate differentiation of the MSC into human osteoblasts, the growth media was replaced by osteogenic differentiation medium (OGM, Cambrex).
(§2) Mouse preosteoblastic MC3T3 cells as well as primary human osteoblasts were treated with ET, from Sigma (St. Louis, Mo.), for 2, 4, and 6 hours in the absence or presence of the ETa receptor antagonist ABT-627, from Abbott Laboratories (Abbott Park, Ill.). The drug was added 1 hour prior to the addition of ET.
Total RNA was extracted from the treated cell lines and purified on RNeasy columns (Qiagen, Valencia, Calif.). Labeled cRNA was prepared according to the microarray manufacturer Affymetrix's protocol and hybridized to either mouse 430A 2.0 or human U133A 2.0 arrays (Affymetrix, Santa Clara, Calif.). Gene expression fold changes for each treatment were calculated by combining three biological replicates for each treatment using the Rosetta Resolver's Affymetrix error model software and building a ratio from the resulting values. All genes regulated ≧1.5-fold with a p-value of ≦0.01 were retained for further analysis. Conventional two-dimensional clustering was then performed by using the agglomerative hierarchical clustering algorithm. The Euclidean distance was used as the similarity metric.

[2] = test system: metastatic hormone-refractory prostate cancer; settings: patients with metastatic hormone-refractory prostate cancer; Nelson et al. 2003; cited from earlier work
osteoblastic metastases = settings: Yin et al. 2003; cited from earlier work
[3] = test system: mouse MC3T3 osteoblast cell line; experiment: ELISA assays of secreted PAI-1, OPG and IL-6 in osteoblast supernatants; format: cell-based
Description: as §1
Mouse MC3T3 osteoblast cells were propagated as set out above, and at times indicated were harvested and spun at 250×g for 10 minutes at room temperature. The clarified supernatants were aliquoted and frozen until analyzed. 200 microliters of each sample was tested in quadruplicate by commercially available ELISA assay kits for PAI-1 (Molecular Innovations, Southfield, Mich.), OPG (Biomedica, San Diego, Calif.) and IL-6 (Ray Biotech, Norcross, Ga.). The ELISA tests were performed according to the manufacturer's instructions. Data from these tests are shown in FIG. 1 (PAI-1), FIG. 2 (OPG) and FIG. 3 (IL-6).

[4] = test system: primary human osteoblasts; experiment: Microarray analysis of gene expression in ET-treated primary human osteoblasts; format: cell-based; settings: ET-1 treatment
Description: as §1, §2
Total RNA was extracted from the treated cell lines and purified on RNeasy columns (Qiagen, Valencia, Calif.). Labeled cRNA was prepared according to the microarray manufacturer Affymetrix's protocol and hybridized to either mouse 430A 2.0 or human U133A 2.0 arrays (Affymetrix, Santa Clara, Calif.). Gene expression fold changes for each treatment were calculated by combining three biological replicates for each treatment using the Rosetta Resolver's Affymetrix error model software and building a ratio from the resulting values. […]

[5] = endothelin in the presence of ABT-627

Compound: CCCCN(CCCC)C(=O)CN1C[C@H](c2ccc3c(c2)OCO3)[C@@H](C(=O)O)[C@@H]1c1ccc(OC)cc1 [ABT-627, (2R,3R,4S)-(+)-2-(4-Methoxyphenyl)-4-(1,3-benzodioxol-5-yl)-1-(N,N-di(n-butyl)aminocarbonylmethyl)-pyrrolidine-3-carboxylic acid]
- # Genes Blocked by ABT-627, percent of genes induced by ET ([1]; 2 hr ET): (96%)
- # Genes Blocked by ABT-627, percent of genes induced by ET ([1]; 4 hr ET): (83%)
- # Genes Blocked by ABT-627, percent of genes induced by ET ([1]; 6 hr ET): (97%)
- Induction by ET of suppression-of-apoptosis genes (Nur77, Flt1, NFATc1) ([1]; ET in presence of ABT-627): the induction was blocked
- Effect of pre-treatment on ET gene induction events ([1]; all three timepoints (2, 4, 6 hours), pre-treatment before ET): abrogated almost all of these gene induction events
- Gene expression changes caused by antagonist alone ([1]; antagonist alone, no ET): very few gene expression changes
- Induction by ET-1 of osteoblastic maturation genes (OPG, COX-2, Dmp1, Tgfbi, CTGF, Klf10) ([1]; pre-treatment with ABT-627): blocked
- Time to disease progression [2]: extended
- Metastatic growth (osteoblastic metastases): suppressed
- Endothelin-induced expression of IL-6 (ELISA) [3, 5]: substantial suppression
- Endothelin-induced expression of OPG (ELISA) [3, 5]: substantial suppression
- Endothelin-induced expression of PAI-1 (ELISA) [3, 5]: substantial suppression

Compound: CC[C@H](C)[C@H](NC(=O)[C@H](CC(=O)O)NC(=O)[C@H](CC(C)C)NC(=O)[C@H](Cc1c[nH]cn1)NC(=O)[C@@H]1CSSC[C@H](N)C(=O)N[C@@H](CO)C(=O)N[C@H]2CSSC[C@H](NC(=O)[C@H](CCC(=O)O)NC(=O)[C@H](CCCCN)NC(=O)[C@H](CC(=O)O)NC(=O)[C@H](CCSC)NC(=O)[C@H](CC(C)C)NC(=O)[C@H](CO)NC(=O)[C@H](CO)NC2=O)C(=O)N[C@@H](C(C)C)C(=O)N[C@@H](Cc2ccc(O)cc2)C(=O)N[C@@H](Cc2ccccc2)C(=O)N1)C(=O)N[C@H](C(=O)N[C@@H](Cc1c[nH]c2ccccc12)C(=O)O)[C@@H](C)CC [ET]
- # Genes Down-regulated by ET ([1]; 2 hr ET treatment): 423
- Induced by ET (number of genes) ([1]; 2 hr ET treatment): 608
- # Genes Down-regulated by ET ([1]; 4 hr ET treatment): 295
- Induced by ET (number of genes) ([1]; 4 hr ET treatment): 472
- # Genes Down-regulated by ET ([1]; 6 hr ET treatment): 95
- Induced by ET (number of genes) ([1]; 6 hr ET treatment): 194
- Expression of suppression-of-apoptosis genes (Nur77, Flt1, NFATc1) ([1]; ET treatment): induced
- Expression of genes coding for secreted proteins (PAI-1, uPA, TGFbeta2, IL-6, IL-8) ([1]; mouse osteoblasts, ET-1 treatment): strongly upregulated
- Expression of genes coding for secreted proteins (PAI-1, uPA, TGFbeta2, IL-6, IL-8) [4]: strongly upregulated
- Expression of IL-6 (ELISA) ([3]; treatment with endothelin): strongly induced
- Expression of OPG (ELISA) ([3]; treatment with endothelin): strongly induced
- Expression of PAI-1 (ELISA) ([3]; treatment with endothelin): strongly induced
